According to US20250255889A1, “METHODS FOR TREATMENT SELECTION FOR CHRONIC LYMPHOCYTIC LEUKEMIA (CLL)” (The Broad Institute, Inc., priority 2022, published 2025):

Tested on: primary CLL samples (CD19+ and CD5+ cells)
Assay: High-throughput dynamic BH3 profiling (HT-DBP): drug-induced apoptotic priming (delta priming), cytochrome c release after BH3 peptide
Assay type: cell-based, human
Settings: for drug-induced apoptotic priming: across CLL subtypes, 65 primary CLL samples, 20 hours drug
Method: By “delta priming” is meant the difference in priming of a cell for apoptosis measured in the presence of an agent for treating chronic lymphocytic leukemia relative to priming of the cell in the presence of an inert carrier. In embodiments, the inert carrier is DMSO.
Dynamic BH3 Profiling Dynamic BH3 profiling (DBP) is a drug screening assay that measures the relative priming of cells in a biological sample for cell death by apoptosis in the presence of a specific compound and/or a pro-apoptotic peptide. By “Dynamic BH3 profiling” is meant measuring drug-induced changes in mitochondrial apoptotic priming. Mitochondrial apoptotic priming is a measure of how close to the apoptotic threshold a cell is. A highly primed cell has relatively less anti-apoptotic binding site availability and is closer to the apoptotic threshold than a poorly primed cell, which has more anti-apoptotic availability to buffer an apoptotic assault and is further from the apoptotic threshold. BH3 peptides derived from the BH3 domain of pro-apoptotic BH3-only proteins provoke a response from viable mitochondria. Cytochrome c released from the mitochondria after a short incubation with BH3 peptide is used as a surrogate for priming. In general, the more sensitive a mitochondrion is to a BH3 peptide, the more primed it is. A drug treatment that enhances priming will cause mitochondria to undergo MOMP more easily when incubated with a fixed concentration of a promiscuously binding BH3 peptide, such as BIM BH3 peptide, compared to control-treated cells. See, for example, Potter, D. S. & Letai, A. To prime, or not to prime: that is the question. Cold Spring Harb. Symp. Quant. Biol. 81, 131-140 (2016); Montero, J. et al. Drug-induced death signaling strategy rapidly predicts cancer response to chemotherapy. Cell 160, 977-989 (2015); Daniels, V. W. et al. Metabolic perturbations sensitize triple-negative breast cancers to apoptosis induced by BH3 mimetics. Sci.
Dynamic BH3 profiling and peptides for use therein are described, for example, in Certo, et al., “Mitochondria primed by death signals determine cellular addiction to antiapoptotic BCL-2 family members,” Cancer Cell, 9:351-365 (2006); and in Foight, et al. “Designed BH3 Peptides with High Affinity and Specificity for Targeting Mcl-1 in Cells,” ACS Chemical Biology, 9:1962-1968 (2014), the disclosures of which are incorporated herein by reference in their entireties for all purposes. The DBP assay enables one to compare the response of a patient tumor sample to a specific drug relative to other drugs and relative to an inert control (e.g., DMSO).
To address the challenge of selecting a proper treatment for a chronic lymphocytic leukemia, experiments were undertaken to optimize high-throughput dynamic BH3 profiling (HT-DBP) for evaluation of the drug sensitivities of CLL samples (FIGS. 1, 13, 5A, 5B, 6A, 6B, and 7A-7C).

[1] = peptide MS1 2.5 uM, feature loss_13q14.13
[2] = peptide BAD 0.3 uM, feature EC-i
[3] = peptide BAD 0.3 uM, feature IGLV321_R110
[4] = peptide BAD 0.3 uM, feature NOTCH1
[5] = peptide BAD 0.3 uM, feature RPS15
[6] = peptide BAD 0.3 uM, feature loss_6q
[7] = peptide BIM 0.01 uM, feature IGLV321_R110
[8] = peptide BIM 0.01 uM, feature RPS15
[9] = peptide BIM 0.01 uM, feature loss_6q
[10] = peptide MS1 2.5 uM, feature IGLV321_R110
[11] = peptide MS1 2.5 uM, feature NOTCH1
[12] = peptide MS1 2.5 uM, feature RPS15
[13] = peptide MS1 2.5 uM, feature loss_6q
[14] = peptide PUMA 1 uM, feature EC-i
[15] = peptide PUMA 1 uM, feature IGLV321_R110
[16] = peptide PUMA 1 uM, feature NOTCH1
[17] = peptide PUMA 1 uM, feature RPS15
[18] = peptide PUMA 1 uM, feature loss_6q
[19] = peptide BIM 0.01 uM, feature NOTCH1
[20] = peptide MS1 2.5 uM, feature tri_12
[21] = peptide PUMA 1 uM, feature loss_17q23.1
[22] = peptide BAD 0.3 uM, feature loss_17p13.1
[23] = peptide BAD 0.3 uM, feature loss_17q23.1

CCS(=O)(=O)N1CCN(c2ccc(Nc3ncc(C(N)=O)c(NC4CC4)n3)cc2)CC1 [Cerdulatinib]
Sensitive: direction (Feature loss_13q14.13) | direction (Feature loss_13q14.3) | direction (peptide BAD 0.3 uM, feature loss_13q14.13) | direction (peptide BAD 0.3 uM, feature loss_13q14.3) | direction (peptide BIM 0.01 uM, feature KMT2D) | direction (peptide BIM 0.01 uM, feature loss_13q14.13) | direction (peptide BIM 0.01 uM, feature loss_13q14.3) | direction [1] | direction (peptide PUMA 1 uM, feature loss_13q14.13) | direction (peptide PUMA 1 uM, feature loss_13q14.3)
high priming: drug-induced apoptotic priming

C[C@@H](Oc1cc(-c2cnn(C3CCNCC3)c2)cnc1N)c1c(Cl)ccc(F)c1Cl [Crizotinib]
Sensitive: direction (peptide BAD 0.3 uM, feature EC-u1) | direction (peptide BAD 0.3 uM, feature RFX7) | direction (peptide BAD 0.3 uM, feature ZMYM3) | direction (peptide BAD 0.3 uM, feature loss_11q22.3) | direction (peptide BAD 0.3 uM, feature n-CLL) | direction (peptide BIM 0.01 uM, feature SF3B1)
Resistant: direction [2] | direction [3] | direction [4] | direction [5] | direction [6] | direction (peptide BIM 0.01 uM, feature EC-i) | direction [7] | direction (peptide BIM 0.01 uM, feature NOTCHI) | direction [8] | direction [9] | direction [10] | direction [11] | direction (peptide MS1 2.5 uM, feature RFX7) | direction [12] | direction (peptide MS1 2.5 uM, feature ZMYM3) | direction [13] | direction (peptide MS1 2.5 uM, feature priortrt_Post) | direction [14] | direction [15] | direction [16] | direction [17] | direction [18]

Cc1nc(Nc2ncc(C(=O)Nc3c(C)cccc3Cl)s2)cc(N2CCN(CCO)CC2)n1 [Dasatinib, dasatinib]
Sensitive: direction (peptide BIM 0.01 uM, feature loss_17q23.1) | direction [20] | direction [21]
Resistant: direction [3] | direction [4] | direction [5] | direction [6] | direction [7] | direction [19] | direction [8] | direction [9] | direction (peptide MS1 2.5 uM, feature EC-i) | direction [10] | direction [11] | direction [12] | direction [13] | direction [15] | direction [16] | direction [17] | direction [18]

C[C@H](Nc1ncnc2[nH]cnc12)c1cc2cccc(Cl)c2c(=O)n1-c1ccccc1 [Duvelisib, duvelisib]
Resistant: direction [19]
high priming: drug-induced apoptotic priming
Sensitive: direction [22] | direction [23] | direction (peptide BIM 0.01 uM, feature EC-m2) | direction (peptide MS1 2.5 uM, feature loss_17p13.1) | direction (peptide MS1 2.5 uM, feature loss_17q23.1) | direction (peptide PUMA 1 uM, feature EC-m2) | direction (peptide PUMA 1 uM, feature loss_17p13.1) | direction [21]

c1cn2cc(-c3ccc4cn[nH]c4c3)nc(Nc3ccc(N4CCOCC4)cc3)c2n1 [Entospletinib]
Sensitive: direction (Feature tri_12) | direction [22] | direction [23] | direction (peptide BAD 0.3 uM, feature loss_19p13.11) | direction (peptide BIM 0.01 uM, feature tri_12) | direction (peptide MS1 2.5 uM, feature loss_19p13.11) | direction (peptide PUMA 1 uM, feature loss_19p13.11)

CCn1c(-c2nonc2N)nc2c(C#CC(C)(C)O)ncc(OC[C@H]3CCCNC3)c21 [GSK690693]
Resistant: direction (peptide BAD 0.3 uM, feature POT1) | direction (peptide BAD 0.3 uM, feature loss_3p13) | direction (peptide MS1 2.5 uM, feature EC-m3)
Sensitive: direction (Feature i-CLL) | direction (peptide BAD 0.3 uM, feature EC-o) | direction (peptide BIM 0.01 uM, feature i-CLL) | direction (peptide MS1 2.5 uM, feature EC-o) | direction (peptide MS1 2.5 uM, feature i-CLL) | direction [1] | direction (peptide PUMA 1 uM, feature BIRC3) | direction (peptide PUMA 1 uM, feature ITIH2) | direction (peptide PUMA 1 uM, feature i-CLL) | direction (peptide PUMA 1 uM, feature loss_9p21.3) | direction (peptide PUMA 1 uM, feature loss_17q11.2)

Cc1cc(Nc2cc(CN3CCOCC3)c3nc(C)c(Cc4ccc(Cl)cc4F)n3n2)n[nH]1 [Gandotinib]
most sensitive: drug-induced apoptotic priming by expression cluster (EC-ul (U-CLL))
Resistant: direction (Feature EC-i) | direction [2] | direction [14]
Sensitive: direction (peptide BAD 0.3 uM, feature GNB1) | direction (peptide PUMA 1 uM, feature GNB1)
high priming: drug-induced apoptotic priming

CC[C@H](Nc1ncnc2nc[nH]c12)c1nc2cccc(F)c2c(=O)n1-c1ccccc1 [Idelalisib, idelalisib]
Sensitive: direction [20] | direction (peptide PUMA 1 uM, feature EC-m4) | direction (peptide PUMA 1 uM, feature KMT2D)
high priming: drug-induced apoptotic priming
Resistant: direction (peptide PUMA 1 uM, feature DICER1) | direction (peptide PUMA 1 uM, feature MED1)
